# Key:
# Experiment in all cases: Kinase panel (mobility shift)
# Assay type in all cases: biochemical
# TAOK2 = molecular target: T1, TAOK2 (Homo sapiens, UniProt Q9UL54)
# T1 sequence (Q9UL54 1-1235): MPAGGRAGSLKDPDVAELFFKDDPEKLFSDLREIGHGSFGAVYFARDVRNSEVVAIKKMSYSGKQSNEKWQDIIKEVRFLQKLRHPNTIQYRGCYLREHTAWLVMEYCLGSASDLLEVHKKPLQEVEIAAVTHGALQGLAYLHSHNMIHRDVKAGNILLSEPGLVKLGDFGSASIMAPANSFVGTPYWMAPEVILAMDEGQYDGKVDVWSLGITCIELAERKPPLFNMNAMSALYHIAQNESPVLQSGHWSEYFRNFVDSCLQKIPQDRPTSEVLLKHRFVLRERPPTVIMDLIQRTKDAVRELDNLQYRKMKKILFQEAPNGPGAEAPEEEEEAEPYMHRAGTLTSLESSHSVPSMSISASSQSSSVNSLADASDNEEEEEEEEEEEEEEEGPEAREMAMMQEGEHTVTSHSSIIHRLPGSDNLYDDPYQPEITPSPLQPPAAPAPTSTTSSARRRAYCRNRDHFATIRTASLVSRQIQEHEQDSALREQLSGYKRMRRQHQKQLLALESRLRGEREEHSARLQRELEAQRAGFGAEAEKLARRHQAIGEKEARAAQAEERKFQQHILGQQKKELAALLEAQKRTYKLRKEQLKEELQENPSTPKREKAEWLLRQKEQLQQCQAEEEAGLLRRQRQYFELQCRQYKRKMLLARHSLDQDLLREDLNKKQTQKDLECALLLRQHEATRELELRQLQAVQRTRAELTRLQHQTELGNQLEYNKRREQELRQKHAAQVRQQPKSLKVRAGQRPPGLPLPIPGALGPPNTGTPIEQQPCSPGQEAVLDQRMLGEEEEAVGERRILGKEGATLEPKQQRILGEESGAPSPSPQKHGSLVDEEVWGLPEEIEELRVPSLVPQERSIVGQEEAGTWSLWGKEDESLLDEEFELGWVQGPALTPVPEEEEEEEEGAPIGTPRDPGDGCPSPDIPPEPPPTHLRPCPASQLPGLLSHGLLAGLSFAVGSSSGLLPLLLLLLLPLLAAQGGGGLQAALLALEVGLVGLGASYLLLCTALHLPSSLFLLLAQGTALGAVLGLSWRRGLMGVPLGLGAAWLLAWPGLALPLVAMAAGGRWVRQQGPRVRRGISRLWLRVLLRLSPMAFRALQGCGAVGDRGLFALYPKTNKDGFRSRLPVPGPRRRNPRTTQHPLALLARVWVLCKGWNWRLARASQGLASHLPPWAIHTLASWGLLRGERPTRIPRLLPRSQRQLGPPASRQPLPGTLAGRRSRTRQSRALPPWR
# How it was run: (§1)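 Tested at a single 5 um concentration within a 299-kinase panel, compounds were scored by electrophoretic mobility shift of a fluorescent substrate into product. Categories: A, 95% or greater; B, 90%-94%; C, 80%-89%.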
# MUSK = molecular target: T2, MUSK (Homo sapiens, UniProt O15146)
# T2 sequence (O15146 24-869): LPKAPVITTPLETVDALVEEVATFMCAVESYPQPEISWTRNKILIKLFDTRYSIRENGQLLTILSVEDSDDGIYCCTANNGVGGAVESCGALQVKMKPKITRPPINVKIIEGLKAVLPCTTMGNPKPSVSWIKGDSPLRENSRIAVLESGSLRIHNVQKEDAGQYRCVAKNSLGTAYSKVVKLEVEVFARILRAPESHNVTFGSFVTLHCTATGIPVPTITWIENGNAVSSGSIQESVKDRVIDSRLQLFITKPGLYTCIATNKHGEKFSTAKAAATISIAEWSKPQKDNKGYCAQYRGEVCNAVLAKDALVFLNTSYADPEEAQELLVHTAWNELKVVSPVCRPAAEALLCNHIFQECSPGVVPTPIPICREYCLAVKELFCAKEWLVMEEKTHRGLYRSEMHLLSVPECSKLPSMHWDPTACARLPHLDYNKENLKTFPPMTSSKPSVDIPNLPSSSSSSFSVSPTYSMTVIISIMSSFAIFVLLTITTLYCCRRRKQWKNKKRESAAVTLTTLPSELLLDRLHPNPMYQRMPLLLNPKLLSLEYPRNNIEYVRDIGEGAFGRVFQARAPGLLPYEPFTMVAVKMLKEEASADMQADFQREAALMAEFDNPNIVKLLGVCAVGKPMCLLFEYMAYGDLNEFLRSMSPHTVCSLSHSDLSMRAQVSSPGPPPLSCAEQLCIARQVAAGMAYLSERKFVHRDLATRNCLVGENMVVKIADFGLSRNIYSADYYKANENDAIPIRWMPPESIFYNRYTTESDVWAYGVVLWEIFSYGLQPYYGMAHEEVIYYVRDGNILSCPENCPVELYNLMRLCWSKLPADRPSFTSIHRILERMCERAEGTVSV
# How it was run: as §1
# P38-a = P38-a (Homo sapiens, UniProt Q16539); details: at 5 um
# Sequence of P38-a (Q16539 whole entry): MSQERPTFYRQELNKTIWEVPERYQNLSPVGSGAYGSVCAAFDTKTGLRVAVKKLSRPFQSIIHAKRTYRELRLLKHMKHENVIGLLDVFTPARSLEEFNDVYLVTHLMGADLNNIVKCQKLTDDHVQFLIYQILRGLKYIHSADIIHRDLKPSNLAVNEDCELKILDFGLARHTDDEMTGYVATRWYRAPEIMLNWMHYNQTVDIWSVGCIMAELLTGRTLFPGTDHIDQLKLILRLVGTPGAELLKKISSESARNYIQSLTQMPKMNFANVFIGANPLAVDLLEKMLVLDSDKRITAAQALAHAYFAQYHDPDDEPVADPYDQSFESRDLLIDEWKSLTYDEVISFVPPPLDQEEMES
# How it was run: as §1
SMILES,inhibition at 5 µM (TAOK2) [%],inhibition at 5 µM (MUSK) [%],"inhibition of kinase activity, P38-a (P38-a)"
CSc1nc(C(=O)Nc2ccc(Oc3ccnc(N)c3Cl)c(F)c2)c(-c2ccc(F)cc2)o1 [Compound 1],< 50,< 50,D (category D for 50-79)
CSc1nc(C(=O)Nc2ccc(Oc3cc4cnn(C)c4cc3Br)c(F)c2)c(-c2ccc(F)cc2)o1 [Compound 2],< 50,< 50,D (category D for 50-79)
CNC(=O)c1cc(Oc2ccc(NC(=O)c3nc(SC)oc3-c3ccc(F)cc3Cl)cc2)ccn1 [Compound 3],< 50,50 to 79,E (category E is less than 50%)
CNC(=O)c1cc(Oc2ccc(NC(=O)c3nc(SC)oc3-c3ccc(F)c(F)c3)cc2)ccn1 [Compound 4],< 50,< 50,C (C=80%-89% at 5 um)
CNC(=O)c1cc(Oc2ccc(NC(=O)c3nc(SC)oc3-c3ccc(Cl)s3)cc2)ccn1 [Compound 5],< 50,< 50,E (category E is less than 50%)
CNC(=O)c1cc(Oc2ccc(NC(=O)c3nc(SC)oc3-c3ccc(F)cc3F)cc2)ccn1 [Compound 6],< 50,< 50,E (category E is less than 50%)
CNC(=O)c1cc(Oc2ccc(NC(=O)c3nc(SC)oc3-c3ccc(OC)cc3)cc2)ccn1 [Compound 7],< 50,< 50,E (category E is less than 50%)
CSc1nc(C(=O)Nc2ccc(Oc3ccnc(-c4cnn(C)c4)c3)c(F)c2)c(-c2ccc(F)cc2)o1 [Compound 11],< 50,50 to 79,B (B=90%-94% at 5 um)
CNC(=O)c1cc(Oc2ccc(NC(=O)c3nc(SC)oc3-c3ccc(F)cc3F)cc2F)ccn1 [Compound 12],< 50,50 to 79,D (category D for 50-79)
CNC(=O)c1cc(Oc2ccc(NC(=O)c3nc(S(C)(=O)=O)sc3-c3ccc(F)cc3)cc2F)ccn1 [Compound 13],< 50,50 to 79,E (category E is less than 50%)
CNC(=O)c1cc(Oc2ccc(NC(=O)c3nc(NC)oc3-c3ccc(F)cc3)cc2F)ccn1 [Compound 14],80 to 89,50 to 79,D (category D for 50-79)
CNC(=O)c1cc(Oc2ccc(NC(=O)c3nc(OC)oc3-c3ccc(F)cc3)cc2F)ccn1 [Compound 15],< 50,< 50,D (category D for 50-79)
CNC(=O)c1cc(Oc2ccc(NC(=O)c3nc(SC)oc3-c3ccc(F)s3)cc2F)ccn1 [Compound 16],< 50,< 50,E (category E is less than 50%)
CNC(=O)c1cc(Oc2ccc(NC(=O)c3nc(NC)oc3-c3ccc(F)s3)cc2F)ccn1 [Compound 17],< 50,< 50,E (category E is less than 50%)

# Further lines, results first:
inhibition at 5 µM (TAOK2) [%],inhibition at 5 µM (MUSK) [%],"inhibition of kinase activity, P38-a (P38-a)",SMILES
< 50,< 50,D (category D for 50-79),CNC(=O)c1cc(Oc2c(F)cc(NC(=O)c3nc(NC)sc3-c3ccc(F)cc3)cc2F)ccn1 [Compound 19]
< 50,< 50,E (category E is less than 50%),CNC(=O)c1cc(Oc2ccc(NC(=O)c3nc(NC)sc3-c3ccc(F)cc3F)cc2F)ccn1 [Compound 21]
50 to 79,< 50,D (category D for 50-79),CNC(=O)c1cc(Oc2ccc(NC(=O)c3nc(NC)sc3-c3ccc(F)cc3C)cc2F)ccn1 [Compound 23]
< 50,< 50,D (category D for 50-79),CNC(=O)c1cc(Oc2ccc(NC(=O)c3nc(OC)oc3-c3ccc(F)c(F)c3)cc2F)ccn1 [Compound 24]
< 50,< 50,E (category E is less than 50%),CNC(=O)c1cc(Oc2ccc(NC(=O)c3nc(OC)oc3-c3ccc(F)s3)cc2F)ccn1 [Compound 25]
50 to 79,80 to 89,B (B=90%-94% at 5 um),CNC(=O)c1cc(Oc2ccc(NC(=O)c3nc(C4CC4)oc3-c3ccc(F)cc3)cc2F)ccn1 [Compound 26]
< 50,< 50,D (category D for 50-79),CSc1nc(C(=O)Nc2ccc(Oc3ccnc(C(=O)NC4CNC4)c3)c(F)c2)c(-c2ccc(F)s2)o1 [Compound 27]
< 50,< 50,E (category E is less than 50%),CSc1nc(C(=O)Nc2ccc(Oc3ccnc(C(=O)NC4COC4)c3)c(F)c2)c(-c2ccc(F)s2)o1 [Compound 28]
50 to 79,< 50,A (A=95% or greater at 5 um),CSc1nc(C(=O)Nc2ccc(Oc3ccnc(C(=O)NC4CNC4)c3)c(F)c2)c(-c2ccc(F)cc2)o1 [Compound 29]
50 to 79,80 to 89,C (C=80%-89% at 5 um),CNC(=O)c1cc(Oc2ccc(NC(=O)c3nc(COC)oc3-c3ccc(F)cc3)cc2F)ccn1 [Compound 30]
< 50,< 50,C (C=80%-89% at 5 um),CSc1nc(C(=O)Nc2ccc(Oc3ccnc(C(=O)NC4COC4)c3)c(F)c2)c(-c2ccc(F)cc2)o1 [Compound 31]
50 to 79,< 50,D (category D for 50-79),CNC(=O)c1cc(Oc2ccc(NC(=O)c3nc(OC4CC4)oc3-c3ccc(F)cc3)cc2F)ccn1 [Compound 32]
< 50,< 50,C (C=80%-89% at 5 um),[2H]C([2H])([2H])NC(=O)c1cc(Oc2ccc(NC(=O)c3nc(SC)oc3-c3ccc(F)c(F)c3)cc2F)ccn1 [Compound 33]
50 to 79,< 50,C (C=80%-89% at 5 um),CNC(=O)c1cc(Oc2ccc(NC(=O)c3nc(SC(C)C)oc3-c3ccc(F)cc3)cc2F)ccn1 [Compound 34]
< 50,< 50,E (category E is less than 50%),[2H]C([2H])([2H])NC(=O)c1cc(Oc2ccc(NC(=O)c3nc(SC)oc3-c3ccc(F)s3)cc2F)ccn1 [Compound 35]
